Data: US20070128217A1 (priority 2003, published 2007)

Legend:
[1] = tested on: antibodies in sera from SARS patients (sera 1a, 1b, 2, 6, 37, 62, London, SARS-yellow, SARS-green); format: binding, human; parameters: Binding of serum 6 to linear peptides of protein X1 of SARS-CoV Urbani / Binding of serum 37 to linear peptides of protein X1 of SARS-CoV Urbani / Binding of serum 6 to looped/cyclic peptide (PEPSCAN-ELISA) / Binding of serum 37 to looped/cyclic peptide (PEPSCAN-ELISA) / Binding of serum 37 to looped/cyclic peptides of protein X1 of SARS-CoV Urbani / Binding of serum 6 to linear peptides of protein X2 / Binding of serum 37 to linear peptides of protein X2 / Binding of serum 37 to looped/cyclic peptides of protein X2 of SARS-CoV Urbani / Binding of serum 6 to linear peptides of protein M of SARS-CoV Urbani / Binding of serum 37 to linear peptides of protein M of SARS-CoV Urbani / Binding of serum 6 to looped/cyclic peptides of protein M of SARS-CoV Urbani / Binding of serum 37 to looped/cyclic peptides of protein M of SARS-CoV Urbani / Binding of serum 6 to linear peptides of protein X3 of SARS-CoV Urbani / Binding of serum 37 to linear peptides of protein X3 of SARS-CoV Urbani / Binding of serum 37 to looped/cyclic peptides of protein X3 of SARS-CoV Urbani / Binding of serum 6 to linear peptides of protein X4 of SARS-CoV Urbani / Binding of serum 37 to linear peptides of protein X4 of SARS-CoV Urbani / Binding of serum 37 to looped/cyclic peptides of protein X4 of SARS-CoV Urbani / Binding of serum 6 to linear peptides of protein X5 of SARS-CoV Urbani / Binding of serum 37 to linear peptides of protein X5 of SARS-CoV Urbani / Binding of serum 37 to looped/cyclic peptides of protein X5 of SARS-CoV Urbani / Binding of serum 6 to linear peptides of protein N of SARS-CoV Urbani / Binding of serum 37 to linear peptides of protein N of SARS-CoV Urbani / Binding of serum 6 to linear peptide (PEPSCAN-ELISA) / Binding of serum 1a to looped/cyclic peptides of protein N of SARS-CoV Urbani / Binding of serum 1b to looped/cyclic peptides of protein N of SARS-CoV Urbani / Binding of serum 2 to looped/cyclic peptides of protein N of SARS-CoV Urbani / Binding of serum 6 to looped/cyclic peptides of protein N of SARS-CoV Urbani / Binding of serum 37 to looped/cyclic peptides of protein N of SARS-CoV Urbani / Binding of serum 62 to looped/cyclic peptides of protein N of SARS-CoV Urbani / Binding of serum London to looped/cyclic peptides of protein N of SARS-CoV Urbani / Binding of serum SARS-green to looped/cyclic peptides of protein N of SARS-CoV Urbani: unit not given here
[2] = tested on: rabbit serum obtained by immunizing a rabbit with the SARS-CoV strain Frankfurt 1; format: binding; parameters: Binding of a rabbit serum to linear peptides / Binding of a rabbit serum to looped peptides / Rabbit serum linear peptides / Rabbit serum looped peptides / Binding of a rabbit serum to linear peptides of protein N of SARS-CoV Urbani (Rabbit serum linear peptides) / Binding of a rabbit serum to looped/cyclic peptides of protein N of SARS-CoV Urbani (Rabbit serum looped peptides): unit not given here
[3] = tested on: control sera (pooled serum of ten healthy LUMC hospital workers; commercial negative donor pooled serum from the Dutch bloodbank); format: binding, human; parameters: Binding of Control serum LUMC to linear peptides / Binding of Control serum Blood-bank to linear peptides / Binding of Control serum LUMC to looped peptides / Binding of Control Serum Blood-Bank to Looped peptides / Binding of Control serum LUMC to linear peptides of the protein M of SARS-CoV Urbani / Binding of Control serum Blood-bank to linear peptides of the protein M of SARS-CoV Urbani / Binding of Control serum LUMC to looped peptides of the protein M of SARS-CoV Urbani / Binding of Control Serum Blood-Bank to Looped peptides of the protein M of SARS-CoV Urbani: unit not given here

Row | Sequence | Binding of serum 1a to linear peptides of protein X2 [1] | Binding of serum 1a to looped/cyclic peptides of protein X2 of SARS-CoV Urbani [1] | Binding of serum 1b to linear peptides of protein X2 [1] | Binding of serum 1b to looped/cyclic peptides of protein X2 of SARS-CoV Urbani [1] | Binding of serum 2 to linear peptides of protein X2 [1] | Binding of serum 2 to looped/cyclic peptides of protein X2 of SARS-CoV Urbani [1] | Binding of serum 6 to linear peptides of protein X2 [1] | Binding of serum 6 to looped/cyclic peptides of protein X2 of SARS-CoV Urbani [1] | Binding of serum 37 to linear peptides of protein X2 [1] | Binding of serum 37 to looped/cyclic peptides of protein X2 of SARS-CoV Urbani [1] | Binding of serum 62 to linear peptides of protein X2 [1] | Binding of serum 62 to looped/cyclic peptides of protein X2 of SARS-CoV Urbani [1] | Binding of serum London to linear peptides of protein X2 [1] | Binding of serum London to looped/cyclic peptides of protein X2 of SARS-CoV Urbani [1] | Binding of a rabbit serum to linear peptides [2] | Binding of a rabbit serum to looped peptides [2] | Binding of Control Serum Blood-Bank to Looped peptides [3] | Binding of Control serum Blood-bank to linear peptides [3] | Binding of Control serum LUMC to linear peptides [3] | Binding of Control serum LUMC to looped peptides [3] | further results
1 | HRMCKYTQSTALQEL | 0.9 | 0.6 | 0.8 | 0.6 | 0.5 | 0.4 | 0.5 | 1.0 | 0.8 | 0.5 | 0.8 | 0.6 | 0.5 | 1.5 | 0.3 | 0.4 | 0.8 | 0.9 | 0.7 | 0.6 | Binding of serum SARS-green to linear peptides of protein X2 [1]: 0.8; Binding of serum SARS-green to looped/cyclic peptides of protein X2 of SARS-CoV Urbani [1]: 0.5; Binding of serum SARS-yellow to linear peptides of protein X2 [1]: 0.8; Binding of serum SARS-yellow to looped/cyclic peptides of protein X2 of SARS-CoV Urbani [1]: 0.5
2 | HSSSLTSLLKTHRMC | 0.6 | 0.4 | 0.5 | 0.4 | 0.3 | 0.3 | 0.5 | 0.2 | 0.5 | 0.3 | 0.6 | 0.4 | 0.5 | 0.2 | 0.2 | 0.5 | 0.5 | 0.8 | 0.4 | 0.5 | Binding of serum SARS-green to linear peptides of protein X2 [1]: 0.5; Binding of serum SARS-green to looped/cyclic peptides of protein X2 of SARS-CoV Urbani [1]: 0.3; Binding of serum SARS-yellow to linear peptides of protein X2 [1]: 0.4; Binding of serum SARS-yellow to looped/cyclic peptides of protein X2 of SARS-CoV Urbani [1]: 0.4
3 | HTIDGSSGVANPAMD | – | – | – | – | – | – | – | – | – | – | – | – | – | – | 0.1 | 0.4 | 0.3 | 0.4 | 0.5 | 0.2 | Binding of serum 1a to linear peptides of protein X1 of SARS-CoV Urbani [1]: 0.7; Binding of serum 1a to looped/cyclic peptides of protein X1 of SARS-CoV Urbani [1]: 0.3; Binding of serum 1b to linear peptides of protein X1 of SARS-CoV Urbani [1]: 0.7; Binding of serum 1b to looped/cyclic peptides of protein X1 of SARS-CoV Urbani [1]: 0.2; Binding of serum 2 to linear peptides of protein X1 of SARS-CoV Urbani [1]: 0.5; Binding of serum 2 to looped/cyclic peptides of protein X1 of SARS-CoV Urbani [1]: 0.1; Binding of serum 6 to linear peptides of protein X1 of SARS-CoV Urbani [1]: 0.5; Binding of serum 6 to looped/cyclic peptides of protein X1 of SARS-CoV Urbani [1]: 0.1; Binding of serum 37 to linear peptides of protein X1 of SARS-CoV Urbani [1]: 0.7; Binding of serum 37 to looped/cyclic peptides of protein X1 of SARS-CoV Urbani [1]: 0.3; Binding of serum 62 to linear peptides of protein X1 of SARS-CoV Urbani [1]: 0.7; Binding of serum 62 to looped/cyclic peptides of protein X1 of SARS-CoV Urbani [1]: 0.2; Binding of serum London to linear peptides of protein X1 of SARS-CoV Urbani [1]: 0.3; Binding of serum London to looped/cyclic peptides of protein X1 of SARS-CoV Urbani [1]: 0.1; Binding of serum SARS-green to linear peptides of protein X1 of SARS-CoV Urbani [1]: 0.6; Binding of serum SARS-green to looped/cyclic peptides of protein X1 of SARS-CoV Urbani [1]: 0.1; Binding of serum SARS-yellow to linear peptides of protein X1 of SARS-CoV Urbani [1]: 0.4; Binding of serum SARS-yellow to looped/cyclic peptides of protein X1 of SARS-CoV Urbani [1]: 0.1
